Assay results as given in PubChem BioAssay AID192 (DTP/NCI, 2004).
Values joined by “and” are separate entries in the source; they are usually repeats but may differ in a detail not shown here. Identical values can stand only once. Toxic doses and inconclusive results are not listed.

Tested on: BDF1 mice, B16 melanoma ip, median survival T/C
Assay: NCI In Vivo Anticancer Drug Screen. Data for tumor model B16 Melanoma (intraperitoneal) in B6D2F1 (BDF1) mice
Conditions: endpoint: median survival time, higher = longer survival
In short: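 The ratio T/C compares compound-treated mice with vehicle-treated controls, using survival or tumor size as the endpoint in a transplantable tumor model.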

[1] = dose: 50.0 mg/kg/injection, schedule: Q01DX009 (ip), vehicle: Klucel (hydroxypropylcellulose) (HPC)
[2] = dose: 100.0 mg/kg/injection, schedule: Q01DX009 (ip), vehicle: Klucel (hydroxypropylcellulose) (HPC)
[3] = dose: 200.0 mg/kg/injection, schedule: Q01DX009 (ip), vehicle: Klucel (hydroxypropylcellulose) (HPC)
[4] = dose: 0.78 mg/kg/injection, schedule: Q01DX009 (ip), vehicle: Klucel (hydroxypropylcellulose) (HPC)
[5] = dose: 1.56 mg/kg/injection, schedule: Q01DX009 (ip), vehicle: Klucel (hydroxypropylcellulose) (HPC)
[6] = dose: 3.12 mg/kg/injection, schedule: Q01DX009 (ip), vehicle: Klucel (hydroxypropylcellulose) (HPC)
[7] = dose: 12.5 mg/kg/injection, schedule: Q01DX009 (ip), vehicle: Klucel (hydroxypropylcellulose) (HPC)
[8] = dose: 50.0 mg/kg/injection, schedule: Q01DX009 (ip), vehicle: saline with Tween-80
[9] = dose: 100.0 mg/kg/injection, schedule: Q01DX009 (ip), vehicle: saline with Tween-80
[10] = dose: 200.0 mg/kg/injection, schedule: Q01DX009 (ip), vehicle: saline with Tween-80
[11] = dose: 6.25 mg/kg/injection, schedule: Q01DX009 (ip), vehicle: Klucel (hydroxypropylcellulose) (HPC)
[12] = dose: 25.0 mg/kg/injection, schedule: Q01DX009 (ip), vehicle: Klucel (hydroxypropylcellulose) (HPC)
[13] = dose: 400.0 mg/kg/injection, schedule: Q01DX009 (ip), vehicle: Klucel (hydroxypropylcellulose) (HPC)
[14] = dose: 100.0 mg/kg/injection, schedule: Q04DX003 (ip), vehicle: Klucel (hydroxypropylcellulose) (HPC)
[15] = dose: 25.0 mg/kg/injection, schedule: Q04DX003 (ip), vehicle: Klucel (hydroxypropylcellulose) (HPC)
[16] = dose: 50.0 mg/kg/injection, schedule: Q04DX003 (ip), vehicle: Klucel (hydroxypropylcellulose) (HPC)

For `COc1cccc(/C=C/[N+](=O)[O-])c1OC`, the T/C (dose: 35.0 mg/kg/injection, schedule: Q01DX009 (ip), vehicle: saline with Tween-80) was 117 % of control and the T/C (dose: 70.0 mg/kg/injection, schedule: Q01DX009 (ip), vehicle: saline with Tween-80) was 104 % of control.
With `CC1CCC(=C(c2ccccc2)c2ccccc2)C(C)N1C` (stereo unspecified) the T/C (dose: 25.0 mg/kg/injection, schedule: Q04DX003 (ip), vehicle: saline with Tween-80) was 105 % of control and the T/C (dose: 50.0 mg/kg/injection, schedule: Q04DX003 (ip), vehicle: saline with Tween-80) was 93 % of control.
With `O=C(Nc1ccccc1F)c1cccc(C(=O)Nc2ccccc2F)c1` the T/C [1] was 101 % of control, the T/C [2] was 108 % of control and the T/C [3] was 96 % of control.
In the case of `N#Cc1ccccc1N=NNc1ccccc1C#N`, the T/C [4] is reported as 90 % of control, the T/C [5] is reported as 102 % of control and the T/C [6] is reported as 96 % of control. The T/C [7] was 86 % of control.
In the case of `S=C(Nc1ccccn1)c1ccccn1`, the T/C (dose: 12.5 mg/kg/injection, schedule: Q01DX009 (ip), vehicle: saline with Tween-80) is reported as 92 % of control, the T/C (dose: 25.0 mg/kg/injection, schedule: Q01DX009 (ip), vehicle: saline with Tween-80) is reported as 112 % of control and the T/C [8] is reported as 94 % of control. The T/C [9] was 93 % of control.
With `COc1cc2c(c(O)c1OC)-c1c(cc(OC)c(OC)c1OC)CC(C)C(C)C2` (stereo unspecified) the T/C (dose: 11.25 mg/kg/injection, schedule: Q01DX009 (ip), vehicle: saline + Tween-80 + alcohol) was 101 % of control, the T/C (dose: 22.5 mg/kg/injection, schedule: Q01DX009 (ip), vehicle: saline + Tween-80 + alcohol) was 105 % of control and the T/C (dose: 45.0 mg/kg/injection, schedule: Q01DX009 (ip), vehicle: saline + Tween-80 + alcohol) was 97 % of control. For the same compound, the T/C (dose: 90.0 mg/kg/injection, schedule: Q01DX009 (ip), vehicle: saline + Tween-80 + alcohol) was 106 % of control.
In the case of `CC1(c2ccc(O)cc2)CCC(C(C)(C)c2ccc(O)cc2)CC1` (stereo unspecified), the T/C [1] is reported as 87 % of control, the T/C [2] is reported as 96 % of control and the T/C [3] is reported as 91 % of control.
In the case of `COc1cccc(/C=N/NC(=O)c2ccccc2N2CCCC2)c1O`, the T/C (dose: 12.5 mg/kg/injection, schedule: Q01DX009 (ip), vehicle: olive oil, sesame oil, peanut oil) is reported as 89 % of control, the T/C (dose: 50.0 mg/kg/injection, schedule: Q01DX009 (ip), vehicle: olive oil, sesame oil, peanut oil) is reported as 89 % of control and the T/C (dose: 100.0 mg/kg/injection, schedule: Q01DX009 (ip), vehicle: olive oil, sesame oil, peanut oil) is reported as 87 % of control. For the same compound, the T/C (dose: 200.0 mg/kg/injection, schedule: Q01DX009 (ip), vehicle: olive oil, sesame oil, peanut oil) was 86 % of control and the T/C (dose: 400.0 mg/kg/injection, schedule: Q01DX009 (ip), vehicle: olive oil, sesame oil, peanut oil) was 96 % of control.
`Cc1c2c(cc3c1[nH]c1ccccc13)C=NCC2` was tested, and the T/C [8] was 107 % of control, the T/C [9] was 98 % of control and the T/C [10] was 109 % of control.
In the case of `CS(=O)(=O)[O-].CS(=O)(=O)[O-].NC1CCCCC1N.[Pt+4]` (stereo unspecified), the T/C (dose: 0.62 mg/kg/injection, schedule: Q01DX009 (ip), vehicle: other) is reported as 124 % of control and the T/C (dose: 1.25 mg/kg/injection, schedule: Q01DX009 (ip), vehicle: other) is reported as 159 % of control.
In the case of `O=C(CCCN1CCC(n2c(=O)[nH]c3ccccc32)CC1)c1ccc(F)cc1`, the T/C [4] is reported as 121 % of control, the T/C [6] is reported as 86 % of control and the T/C [11] is reported as 92 % of control. The T/C [7] was 89 % of control and the T/C [12] was 89 % of control and 94 % of control.
With `Clc1ncnc2nc[nH]c12` the T/C (dose: 50.0 mg/kg/injection, schedule: Q01DX009 (ip), vehicle: saline sonified) was 92 % of control, the T/C [8] was 86 % of control and the T/C (dose: 100.0 mg/kg/injection, schedule: Q01DX009 (ip), vehicle: saline sonified) was 97 % of control. The T/C [9] was 97 % of control and the T/C (dose: 200.0 mg/kg/injection, schedule: Q01DX009 (ip), vehicle: saline sonified) was 110 % of control.
With `COc1ccc(C(=O)Nc2ccccc2)cc1[N+](=O)[O-]` the T/C [2] was 89 % of control, the T/C [3] was 100 % of control and the T/C [13] was 94 % of control.
With `CN1CCCCC1CCN1c2ccccc2Sc2ccc(Br)cc21` (stereo unspecified) the T/C (dose: 0.78 mg/kg/injection, schedule: Q01DX009 (ip), vehicle: saline) was 109 % of control, the T/C (dose: 3.12 mg/kg/injection, schedule: Q01DX009 (ip), vehicle: saline) was 105 % of control and the T/C (dose: 6.25 mg/kg/injection, schedule: Q01DX009 (ip), vehicle: saline) was 107 % of control. The T/C (dose: 12.5 mg/kg/injection, schedule: Q01DX009 (ip), vehicle: saline) was 96 % of control.
For `O=C1NC(c2cccc3ccccc23)Nc2ccccc21` (stereo unspecified), the T/C (dose: 15.6 mg/kg/injection, schedule: Q01DX009 (ip), vehicle: Klucel (hydroxypropylcellulose) (HPC)) was 97 % of control, the T/C (dose: 31.2 mg/kg/injection, schedule: Q01DX009 (ip), vehicle: Klucel (hydroxypropylcellulose) (HPC)) was 100 % of control and the T/C (dose: 62.5 mg/kg/injection, schedule: Q01DX009 (ip), vehicle: Klucel (hydroxypropylcellulose) (HPC)) was 104 % of control. For the same compound, the T/C (dose: 125.0 mg/kg/injection, schedule: Q01DX009 (ip), vehicle: Klucel (hydroxypropylcellulose) (HPC)) was 108 % of control.
In the case of `COc1cc2c(c(OC)c1O)-c1ccc(OC)c(=O)cc1[C@@H](NC(=O)C(F)(F)F)CC2`, the T/C (dose: 0.62 mg/kg/injection, schedule: Q01DX009 (ip), vehicle: Klucel (hydroxypropylcellulose) (HPC)) is reported as 121 % of control, the T/C (dose: 1.25 mg/kg/injection, schedule: Q01DX009 (ip), vehicle: Klucel (hydroxypropylcellulose) (HPC)) is reported as 117 % of control and 124 % of control and the T/C (dose: 2.5 mg/kg/injection, schedule: Q01DX009 (ip), vehicle: Klucel (hydroxypropylcellulose) (HPC)) is reported as 116 % of control. For the same compound, the T/C (dose: 5.0 mg/kg/injection, schedule: Q01DX009 (ip), vehicle: Klucel (hydroxypropylcellulose) (HPC)) was 118 % of control.
In the case of `COC(=O)/C=C/NC(=O)c1ccccc1C(=O)OC`, the T/C [14] is reported as 86 % of control, the T/C [3] is reported as 97 % of control and the T/C (dose: 200.0 mg/kg/injection, schedule: Q04DX003 (ip), vehicle: Klucel (hydroxypropylcellulose) (HPC)) is reported as 86 % of control.
For `CCN=C=NCCCN(C)C`, the T/C (dose: 10.0 mg/kg/injection, schedule: Q01DX009 (ip), vehicle: saline) was 92 % of control, the T/C (dose: 20.0 mg/kg/injection, schedule: Q01DX009 (ip), vehicle: saline) was 92 % of control and the T/C (dose: 40.0 mg/kg/injection, schedule: Q01DX009 (ip), vehicle: saline) was 97 % of control. For the same compound, the T/C (dose: 80.0 mg/kg/injection, schedule: Q01DX009 (ip), vehicle: saline) was 94 % of control.
`CC(=O)Oc1ccccc1O` was tested, and the T/C (dose: 25.0 mg/kg/injection, schedule: Q01DX009 (ip), vehicle: saline + Tween-80 + alcohol) was 100 % of control, the T/C (dose: 50.0 mg/kg/injection, schedule: Q01DX009 (ip), vehicle: saline + Tween-80 + alcohol) was 109 % of control and the T/C (dose: 100.0 mg/kg/injection, schedule: Q01DX009 (ip), vehicle: saline + Tween-80 + alcohol) was 104 % of control.
For `COc1ccc(C2CCC(=O)CC2C(=O)O)cc1` (stereo unspecified), the T/C [14] was 94 % of control and the T/C (dose: 400.0 mg/kg/injection, schedule: Q04DX003 (ip), vehicle: Klucel (hydroxypropylcellulose) (HPC)) was 100 % of control.
With `NC(CNC(=O)C(Cl)Cl)C(=O)O` (stereo unspecified) the T/C (dose: 6.25 mg/kg/injection, schedule: Q01DX009 (ip), vehicle: water) was 93 % of control, the T/C (dose: 12.5 mg/kg/injection, schedule: Q01DX009 (ip), vehicle: water) was 105 % of control and the T/C (dose: 25.0 mg/kg/injection, schedule: Q01DX009 (ip), vehicle: water) was 100 % of control. For the same compound, the T/C (dose: 50.0 mg/kg/injection, schedule: Q01DX009 (ip), vehicle: water) was 98 % of control and the T/C (dose: 100.0 mg/kg/injection, schedule: Q01DX009 (ip), vehicle: water) was 89 % of control.
In the case of `N=P(N[P+](N)(c1ccccc1)c1ccccc1)(c1ccccc1)c1ccccc1`, the T/C [5] is reported as 101 % of control, the T/C [6] is reported as 107 % of control and the T/C [11] is reported as 108 % of control.
For `C=CCc1c(C)ccc(C)c1OC`, the T/C [15] was 102 % of control, the T/C [16] was 101 % of control and the T/C [14] was 93 % of control.
`CCOc1ccc(NC(=O)c2ccccc2Cl)cc1` was tested, and the T/C [2] was 93 % of control, the T/C [3] was 112 % of control and the T/C [13] was 93 % of control.
For `Cc1c(C)c2c(c(C)c1O)CCC(C)(CCCC(C)CCCC(C)CCCC(C)C)O2` (stereo unspecified), the T/C [9] was 95 % of control and the T/C [10] was 90 % of control.
For `ClCCCCCCCCCCCl`, the T/C [7] was 111 % of control, the T/C [12] was 100 % of control and the T/C [15] was 100 % of control. For the same compound, the T/C [1] was 95 % of control, the T/C [16] was 100 % of control and the T/C [14] was 104 % of control.
